Test results from ChEMBL document CHEMBL1201862, “PubChem BioAssay data set” (2004).
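96-well plates; 48 h exposure; 5 concentrations. Endpoints by linear interpolation between flanking doses. Not reached: highest tested concentration assigned. GI50: concentration for 50% inhibition of growth.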 The source made the active and inactive calls. No stated cut-off is given here; in the data, active = GI50 up to about 1.1 µM and inactive = higher.

Columns and labels:
Test in all cases: NCI-60 cell line screen, 48 h
OVCAR-4 = tested on: OVCAR-4
T47D = tested on: T47D
LOX IMVI = tested on: LOX IMVI
SK-MEL-5 = tested on: SK-MEL-5
OVCAR-5 = tested on: OVCAR-5
SNB-19 = tested on: SNB-19
786-0 = tested on: 786-0
HOP-62 = tested on: HOP-62
ACHN = tested on: ACHN
HL-60 = tested on: HL-60
DU-145 = tested on: DU-145
KM12 = tested on: KM12
MDA-MB-231 = tested on: MDA-MB-231
A549 = tested on: A549
HCT-116 = tested on: HCT-116
HCT-15 = tested on: HCT-15
SK-OV-3 = tested on: SK-OV-3
MDA-MB-435 = tested on: MDA-MB-435
SR = tested on: SR

Structure (SMILES)	GI50 (OVCAR-4)	GI50 (T47D)	GI50 (LOX IMVI)	GI50 (SK-MEL-5)	GI50 (OVCAR-5)	GI50 (SNB-19)	GI50 (786-0)	GI50 (HOP-62)	GI50 (ACHN)	GI50 (HL-60)	GI50 (DU-145)	GI50 (KM12)	GI50 (MDA-MB-231)	GI50 (A549)	GI50 (HCT-116)	GI50 (HCT-15)	GI50 (SK-OV-3)	GI50 (MDA-MB-435)	GI50 (SR)
Cn1c(=O)c2c(nc3n(CC(O)CCl)c(=O)ccn23)n(C)c1=O (stereo not given)	61.8 µM (inactive)	35.7 µM (inactive)	29.1 µM (inactive)	62.5 µM (inactive)	> 100 µM (inactive)	60 µM (inactive)	26.4 µM (inactive)	46.9 µM (inactive)	15.4 µM (inactive)	15.5 µM (inactive)	28.8 µM (inactive)	19.9 µM (inactive)	31.3 µM (inactive)	64 µM (inactive)	18.2 µM (inactive)	34.9 µM	45.1 µM (inactive)	47.8 µM (inactive)	
COc1cc(C(c2ccc3c(c2)OCO3)C2SCCCS2)cc(OC)c1OC (stereo not given)	6.65 µM (inactive)	3.56 µM (inactive)		3.34 µM (inactive)	4.81 µM (inactive)	1.86 µM (inactive)	2.74 µM (inactive)	3.03 µM (inactive)	5.52 µM (inactive)		3.03 µM (inactive)	3.09 µM (inactive)	2.3 µM (inactive)	4.22 µM (inactive)	2.59 µM (inactive)	2.02 µM	2.81 µM (inactive)	0.661 µM (active)	0.332 µM (active)
Cn1c(=O)nc2n(-c3cc(C(F)(F)F)cc(C(F)(F)F)c3)c3ccccc3nc-2c1=O	40.3 µM (inactive)		> 100 µM (inactive)	8.18 µM (inactive)	> 100 µM (inactive)	49 µM (inactive)	> 100 µM (inactive)	> 100 µM (inactive)	75.3 µM (inactive)	> 100 µM (inactive)		> 100 µM (inactive)		> 100 µM (inactive)	> 100 µM (inactive)	> 100 µM	> 100 µM (inactive)		> 100 µM (inactive)
NNC1=N/C(=C\c2ccco2)C(=O)N1	> 100 µM (inactive)	> 100 µM (inactive)	60.1 µM (inactive)	> 100 µM (inactive)	> 100 µM (inactive)	> 100 µM (inactive)	> 100 µM (inactive)	> 100 µM (inactive)	47.5 µM (inactive)	> 100 µM (inactive)		> 100 µM (inactive)	> 100 µM (inactive)	80.9 µM (inactive)	> 100 µM (inactive)	58.3 µM	> 100 µM (inactive)	> 100 µM (inactive)	> 100 µM (inactive)
Cc1cc(S(=O)(=O)Nc2cc(N)n[nH]2)c(SCc2nc(N)nc(N(C)C)n2)cc1Cl	> 10 µM (inactive)	> 10 µM (inactive)	> 10 µM (inactive)	> 10 µM (inactive)	> 10 µM (inactive)	> 10 µM (inactive)	> 10 µM (inactive)	> 10 µM (inactive)	> 10 µM (inactive)	> 10 µM (inactive)	> 10 µM (inactive)	> 10 µM (inactive)		> 10 µM (inactive)	> 10 µM (inactive)	> 10 µM	> 10 µM (inactive)		> 10 µM (inactive)
O=C1/C(=C/c2cccc([N+](=O)[O-])c2)N=C(c2ccccc2)N1c1ccc2c(c1)Sc1cc(N3C(=O)/C(=C/c4cccc([N+](=O)[O-])c4)N=C3c3ccccc3)ccc1N2	18.7 µM (inactive)	25.4 µM (inactive)	27 µM (inactive)	17.3 µM (inactive)	18.5 µM (inactive)	21.2 µM (inactive)	21 µM (inactive)	20 µM (inactive)	30.9 µM (inactive)	21.6 µM (inactive)	36.7 µM (inactive)	> 100 µM (inactive)	29.1 µM (inactive)	53 µM (inactive)	42.8 µM (inactive)	> 100 µM	16.4 µM (inactive)	18.7 µM (inactive)	
COC(=O)C(Cc1ccccc1)OC(=O)C(N)CC(=O)O (stereo not given)		> 100 µM (inactive)		> 100 µM (inactive)	> 100 µM (inactive)	> 100 µM (inactive)	> 100 µM (inactive)	> 100 µM (inactive)	> 100 µM (inactive)		> 100 µM (inactive)		> 100 µM (inactive)	> 100 µM (inactive)	> 100 µM (inactive)	> 100 µM	> 100 µM (inactive)	17.1 µM (inactive)	> 100 µM (inactive)
CC12CCC(=O)C=C1CCC1C2C(O)CC2(C)C(c3csc(N)n3)CCC12.O=S(=O)(O)c1ccc(Br)cc1 (stereo not given)	> 100 µM (inactive)	> 100 µM (inactive)	> 100 µM (inactive)	> 100 µM (inactive)	> 100 µM (inactive)	> 100 µM (inactive)	> 100 µM (inactive)	> 100 µM (inactive)	> 100 µM (inactive)		> 100 µM (inactive)	> 100 µM (inactive)	> 100 µM (inactive)	> 100 µM (inactive)	> 100 µM (inactive)	> 100 µM	> 100 µM (inactive)	> 100 µM (inactive)	> 100 µM (inactive)
CC1(C)O[C@@H](CP(c2ccccc2)c2ccccc2)[C@H](CP(c2ccccc2)c2ccccc2)O1	9.08 µM (inactive)	3.76 µM (inactive)	1.82 µM (inactive)	5.74 µM (inactive)	8.81 µM (inactive)	4.05 µM (inactive)	6.15 µM (inactive)	15.1 µM (inactive)	15.2 µM (inactive)		11.7 µM (inactive)	2.85 µM (inactive)	5.85 µM (inactive)	2.93 µM (inactive)	1.84 µM (inactive)	12.3 µM	15.2 µM (inactive)	6.03 µM (inactive)	
CCC(=O)NCC1CCCN2CCCCC12 (stereo not given)	> 100 µM (inactive)	> 100 µM (inactive)	> 100 µM (inactive)	> 100 µM (inactive)		> 100 µM (inactive)	> 100 µM (inactive)		> 100 µM (inactive)	> 100 µM (inactive)	> 100 µM (inactive)	> 100 µM (inactive)	> 100 µM (inactive)	> 100 µM (inactive)	> 100 µM (inactive)	> 100 µM	> 100 µM (inactive)	> 100 µM (inactive)	
O=C(O)C1C2CC3C(OC(=O)C31)C2Br (stereo not given)	> 100 µM (inactive)	> 100 µM (inactive)	> 100 µM (inactive)	> 100 µM (inactive)	> 100 µM (inactive)	> 100 µM (inactive)	> 100 µM (inactive)	> 100 µM (inactive)	> 100 µM (inactive)		> 100 µM (inactive)	> 100 µM (inactive)	> 100 µM (inactive)	> 100 µM (inactive)	> 100 µM (inactive)	> 100 µM	> 100 µM (inactive)	> 100 µM (inactive)	0.432 µM (active)
COc1cc(COC(=O)N2CCC2C(=O)O)c([N+](=O)[O-])cc1OC (stereo not given)		> 100 µM (inactive)		> 100 µM (inactive)	> 100 µM (inactive)	> 100 µM (inactive)	> 100 µM (inactive)	> 100 µM (inactive)	> 100 µM (inactive)	> 100 µM (inactive)	> 100 µM (inactive)	> 100 µM (inactive)		> 100 µM (inactive)	> 100 µM (inactive)	> 100 µM	> 100 µM (inactive)	> 100 µM (inactive)	> 100 µM (inactive)
COc1ccc(CNc2nc3ccccc3nc2C(=O)O)cc1		65.3 µM (inactive)	45.4 µM (inactive)	52.6 µM (inactive)	> 100 µM (inactive)	> 100 µM (inactive)	57.8 µM (inactive)	> 100 µM (inactive)		95.7 µM (inactive)	66.4 µM (inactive)	65.6 µM (inactive)	> 100 µM (inactive)	> 100 µM (inactive)	51.6 µM (inactive)	23.1 µM		> 100 µM (inactive)	41.1 µM (inactive)
Cc1ccc(S(=O)(=O)NC(=O)NC(CC(N)=O)C(=O)O)cc1 (stereo not given)	> 100 µM (inactive)	> 100 µM (inactive)	> 100 µM (inactive)	> 100 µM (inactive)	> 100 µM (inactive)	> 100 µM (inactive)	> 100 µM (inactive)	> 100 µM (inactive)	> 100 µM (inactive)	> 100 µM (inactive)	> 100 µM (inactive)	> 100 µM (inactive)	> 100 µM (inactive)	> 100 µM (inactive)	> 100 µM (inactive)	> 100 µM	> 100 µM (inactive)		> 100 µM (inactive)
CC(C)OC(=O)NCCn1cc(-c2ccccc2)nn1	> 100 µM (inactive)		> 100 µM (inactive)	> 100 µM (inactive)	> 100 µM (inactive)	> 100 µM (inactive)	> 100 µM (inactive)	> 100 µM (inactive)	> 100 µM (inactive)	> 100 µM (inactive)	> 100 µM (inactive)	> 100 µM (inactive)	> 100 µM (inactive)	> 100 µM (inactive)	> 100 µM (inactive)	> 100 µM		> 100 µM (inactive)	> 100 µM (inactive)
Cc1c2cccc-2c(OCCOC(=O)n2ccnc2)cc2c1[nH]c1ccccc12	2.32 µM (inactive)	2.49 µM (inactive)	1.89 µM (inactive)	2.42 µM (inactive)	2.55 µM (inactive)	2.65 µM (inactive)	3.87 µM (inactive)	5.48 µM (inactive)	2.56 µM (inactive)	2.12 µM (inactive)	6.24 µM (inactive)	2.14 µM (inactive)		3.42 µM (inactive)	3.33 µM (inactive)	2.2 µM	4.74 µM (inactive)	3.12 µM (inactive)	3.31 µM (inactive)
CCOC(=O)C1CCCCc2sc(N)c(C#N)c21 (stereo not given)				> 100 µM (inactive)	> 100 µM (inactive)	> 100 µM (inactive)	> 100 µM (inactive)	> 100 µM (inactive)	> 100 µM (inactive)	> 100 µM (inactive)		> 100 µM (inactive)	> 100 µM (inactive)	> 100 µM (inactive)	> 100 µM (inactive)	> 100 µM			> 100 µM (inactive)
